These results are taken from patent US10967078B2, “Radiolabelled mGluR2 PET ligands” (Janssen Pharmaceutica NV, priority 2014, dated 2021).

The test addresses T1, mGluR2 (Rattus norvegicus, UniProt P31421).
T1 construct: horizontal sections of mGluR2 KO and WT mouse brain and of normal female Wistar rat brain; from tissue; host or cells: normal female Wistar rat brain sections, 20 µm
The test is described as follows: In vitro autoradiography binding on normal female Wistar rat brain sections. The procedure:
In vitro autoradiography studies were performed on horizontal sections of mGluR2 KO and WT mouse brain and of normal female Wistar rat brain (20 μm). The sections were preincubated in 50 mM Tris-HCl (MgCl2 2 mM, CaCl2 2 mM; pH 7.0) for 10 min (two times) at room temperature and dried. Next, the brain sections were incubated with tracer [^11C]-2, [^11C]-5, [^11C]-4, [^11C]-1 or [^18F]-3 diluted in the same Tris-HCl buffer as used for the preincubation additionally containing 0.1% BSA or with this tracer solution in the presence of 10 μM Co. No. 2 or Co. No. 1. The mouse brain sections were incubated with 17 kBq of carbon-11 labeled tracer and 1.7 kBq of fluorine-18 labeled tracer. For the rat brain sections this was 44 kBq of carbon-11 labeled tracer and 0.44 kBq of fluorine-18 labeled tracer. After 30 min of incubation, the brain sections were washed three times for 5 min in ice-cold Tris-HCl 50 mM ((MgCl2 2 mM, CaCl2 2 mM; pH 7.0+0.1% BSA buffer). After a quick dip in purified ice-cold water, the slides were dried. Autoradiograms were obtained by exposing the slides overnight to a high-performance phosphor storage screen (super-resolution screen; Perkin Elmer, Waltham, USA). The screens were read using a Cyclone Plus system (Perkin Elmer) and analysed using Optiquant software (Perkin Elmer). The radioactivity concentration in the autoradiograms was expressed in digital light units (DLU)/mm^2.
To obtain additional information on the specificity of the tracer binding to mGluR2, in vitro autoradiography binding studies were performed on mGluR2 KO and WT mouse brain sections and on normal rat brain sections in presence or absence of a high concentration of mGluR2 NAM compounds (Co. No. 1 or Co. No. 2).

[1] abbreviates: self-blocking or blocking with Co. No. 1 (10 μM).

T1 sequence (P31421 19-872): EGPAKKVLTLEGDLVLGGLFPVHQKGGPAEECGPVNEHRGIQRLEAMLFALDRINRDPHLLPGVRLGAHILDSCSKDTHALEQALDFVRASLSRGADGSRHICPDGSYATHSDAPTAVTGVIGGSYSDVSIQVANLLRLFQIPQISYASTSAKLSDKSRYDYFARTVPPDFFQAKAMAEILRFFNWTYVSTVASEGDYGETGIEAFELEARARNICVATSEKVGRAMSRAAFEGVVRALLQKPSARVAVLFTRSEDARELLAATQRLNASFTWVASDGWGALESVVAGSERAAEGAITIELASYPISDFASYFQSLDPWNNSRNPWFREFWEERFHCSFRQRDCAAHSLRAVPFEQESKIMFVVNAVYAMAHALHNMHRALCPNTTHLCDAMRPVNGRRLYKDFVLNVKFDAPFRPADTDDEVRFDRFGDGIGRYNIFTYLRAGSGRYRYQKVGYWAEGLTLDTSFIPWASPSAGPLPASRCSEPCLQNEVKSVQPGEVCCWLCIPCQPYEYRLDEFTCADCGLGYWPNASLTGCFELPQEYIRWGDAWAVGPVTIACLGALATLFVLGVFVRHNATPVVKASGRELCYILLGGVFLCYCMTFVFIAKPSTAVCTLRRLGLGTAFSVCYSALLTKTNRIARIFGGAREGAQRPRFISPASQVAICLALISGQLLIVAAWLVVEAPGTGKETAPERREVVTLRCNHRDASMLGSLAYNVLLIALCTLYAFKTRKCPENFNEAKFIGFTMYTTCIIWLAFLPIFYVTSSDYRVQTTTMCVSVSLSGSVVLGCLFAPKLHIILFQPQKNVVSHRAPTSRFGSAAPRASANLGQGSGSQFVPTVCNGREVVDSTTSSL

Turning to `C[C@H]1CN(c2ccc(C(F)(F)F)cc2)C(=O)c2c(-c3ccnc(N[11CH3])c3)cnn21` [[^11C]-2], the “total binding to normal rat brain sections” value (in words) is “high binding”. Under setting [1], the “decrease in binding in rat cortex” value is ~91% and the “decrease in binding in rat striatum” value was ~78%.
